Measurements: ChEMBL document CHEMBL1817626, “The structure-activity relationship of urea derivatives as anti-tuberculosis agents” (Bioorg Med Chem, 2011)
Converted amounts (≈) assume the structure as drawn.

What was measured:
[1] = tested on: Escherichia coli; experiment: Antibacterial activity against Escherichia coli […] TolC; assay type: functional
[2] = tested on: Vero; experiment: Cytotoxicity against african green monkey Vero cells after 72 hrs by MTT assay; assay type: cell-based; details: Chlorocebus sabaeus
[3] = tested on: Mycobacterium tuberculosis; experiment: microbe, parasite or virus in culture; details: H37Rv, 168 h
[4] = tested on: Enterococcus faecalis; experiment: Antibacterial activity against Enterococcus faecalis; assay type: functional
[5] = target: T1, Epoxide hydrolase B (Mycobacterium tuberculosis) (UniProt P95276); experiment: Inhibition of Mycobacterium tuberculosis recombinant EphB expressed in Escherichia coli BL21 using CMNPC as substrate at 10 nM after 30 mins by fluorescent assay relative to control
T1 sequence (whole entry): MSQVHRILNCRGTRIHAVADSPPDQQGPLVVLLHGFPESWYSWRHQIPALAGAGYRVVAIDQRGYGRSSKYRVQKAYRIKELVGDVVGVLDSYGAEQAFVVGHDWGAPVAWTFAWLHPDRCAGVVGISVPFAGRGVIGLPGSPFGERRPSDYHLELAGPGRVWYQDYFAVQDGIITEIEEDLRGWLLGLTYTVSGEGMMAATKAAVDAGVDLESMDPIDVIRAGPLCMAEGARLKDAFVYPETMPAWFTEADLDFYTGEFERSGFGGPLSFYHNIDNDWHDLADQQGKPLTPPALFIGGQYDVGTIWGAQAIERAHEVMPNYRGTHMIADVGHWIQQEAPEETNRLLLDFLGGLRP

[6] = target: T2, Bifunctional epoxide hydrolase 2 (Homo sapiens, UniProt P34913); experiment: Inhibition of human recombinant soluble epoxide hydrolase using CMNPC as substrate after 10 mins by fluorescent assay
T2 sequence (P34913 whole entry): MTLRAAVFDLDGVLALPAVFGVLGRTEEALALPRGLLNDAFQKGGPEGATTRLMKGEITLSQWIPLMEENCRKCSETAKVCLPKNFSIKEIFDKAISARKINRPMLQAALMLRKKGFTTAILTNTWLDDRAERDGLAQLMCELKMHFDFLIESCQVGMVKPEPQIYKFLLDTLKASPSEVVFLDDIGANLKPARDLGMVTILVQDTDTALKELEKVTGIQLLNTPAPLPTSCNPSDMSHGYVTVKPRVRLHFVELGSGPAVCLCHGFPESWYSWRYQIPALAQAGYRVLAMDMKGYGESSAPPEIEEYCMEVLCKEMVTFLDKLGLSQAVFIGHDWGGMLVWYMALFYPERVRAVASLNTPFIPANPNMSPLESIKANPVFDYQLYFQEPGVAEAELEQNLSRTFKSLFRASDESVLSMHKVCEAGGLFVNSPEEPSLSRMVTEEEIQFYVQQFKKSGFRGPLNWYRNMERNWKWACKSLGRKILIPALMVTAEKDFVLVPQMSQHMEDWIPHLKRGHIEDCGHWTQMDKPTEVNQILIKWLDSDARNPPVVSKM

[7] = tested on: Enterococcus faecium; experiment: Antibacterial activity against Enterococcus faecium; assay type: functional
[8] = tested on: Escherichia coli; experiment: Antibacterial activity against Escherichia coli K12; assay type: functional; details: K-12
[9] = tested on: Staphylococcus aureus; experiment: Antibacterial activity against Staphylococcus aureus; assay type: functional
[10] = tested on: Klebsiella pneumoniae; experiment: Antibacterial activity against Klebsiella pneumoniae; assay type: functional
[11] = tested on: Mycolicibacterium smegmatis; experiment: microbe, parasite or virus in culture; details: str. MC2 155, 168 h
[12] = target: T3, Hydrolase, alpha/beta hydrolase fold family (Mycobacterium tuberculosis) (UniProt O69638); experiment: Inhibition of Mycobacterium tuberculosis recombinant EphE expressed in Escherichia coli BL21 using CMNPC as substrate at 10 nM after 30 mins by fluorescent assay relative to control
T3 sequence (whole entry): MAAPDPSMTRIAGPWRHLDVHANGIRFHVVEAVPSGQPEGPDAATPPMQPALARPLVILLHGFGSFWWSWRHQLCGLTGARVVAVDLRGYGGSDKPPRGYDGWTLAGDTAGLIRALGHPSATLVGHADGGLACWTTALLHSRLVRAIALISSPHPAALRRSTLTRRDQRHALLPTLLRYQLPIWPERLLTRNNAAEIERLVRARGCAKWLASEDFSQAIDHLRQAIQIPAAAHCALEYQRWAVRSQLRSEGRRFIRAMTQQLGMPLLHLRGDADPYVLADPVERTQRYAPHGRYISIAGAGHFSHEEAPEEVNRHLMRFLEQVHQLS

[13] = tested on: Bacillus anthracis; experiment: microbe, parasite or virus in culture
[14] = tested on: Pseudomonas aeruginosa; experiment: Antibacterial activity against Pseudomonas aeruginosa; assay type: functional

SMILES | MIC [1] | IC50 [2] | MIC [3] | MIC [4] | inhibition [5] | IC50 [6] | MIC [7] | MIC [8] | MIC [9] | MIC [10] | MIC [11] | inhibition [12] | MIC [13] | MIC [14]
O=C(NCc1cccc(Cl)c1)Nc1cccc(C(F)(F)F)c1F | > 200 µg/mL | 193 µg/mL (≈ 557 µM) | 1.6 µg/mL (≈ 4.61 µM) | > 200 µg/mL | 16.6% | 3.7 nM | > 200 µg/mL | > 200 µg/mL | > 200 µg/mL | > 200 µg/mL | > 200 µg/mL | 15.5% | > 200 µg/mL | > 200 µg/mL
O=C(NCCc1ccccc1)NC1C2CC3CC(C2)CC1C3 (stereo unspecified) | > 200 µg/mL | 30.2 µg/mL (≈ 101 µM) | 0.01 µg/mL (≈ 0.0335 µM) | > 200 µg/mL | 34.1% | 4.5 nM | > 200 µg/mL | > 200 µg/mL | > 200 µg/mL | > 200 µg/mL | 25 µg/mL (≈ 83.8 µM) | 87.9% | > 200 µg/mL | > 200 µg/mL
CC(C)NC(=O)NC1C2CC3CC(C2)CC1C3 (stereo unspecified) | > 200 µg/mL | 23.4 µg/mL (≈ 99 µM) | 50 µg/mL (≈ 212 µM) | > 200 µg/mL | 27.2% | 84.4 nM | > 200 µg/mL | > 200 µg/mL | > 200 µg/mL | > 200 µg/mL | > 100 µg/mL | 57.3% | > 200 µg/mL | > 200 µg/mL
Cc1c(Cl)cccc1NC(=O)NC1C2CC3CC(C2)CC1C3 (stereo unspecified) | > 200 µg/mL | 26.4 µg/mL (≈ 82.8 µM) | 1.6 µg/mL (≈ 5.02 µM) | > 200 µg/mL | 9.8% | 4.5 nM | > 200 µg/mL | > 200 µg/mL | > 200 µg/mL | > 200 µg/mL | > 100 µg/mL | 58.3% | > 200 µg/mL | > 200 µg/mL
CCCCCCCNC(=O)NC1C2CC3CC(C2)CC1C3 (stereo unspecified) | > 200 µg/mL | 20 µg/mL (≈ 68.4 µM) | 0.2 µg/mL (≈ 0.684 µM) | > 200 µg/mL | 37.1% | 0.5 nM | > 200 µg/mL | > 200 µg/mL | > 200 µg/mL | > 200 µg/mL | 1.6 µg/mL (≈ 5.47 µM) | 99.9% | > 200 µg/mL | > 200 µg/mL
Cc1ccc(NC(=O)NC(C)CCc2ccccc2)cc1Cl (stereo unspecified) | > 200 µg/mL | > 400 µg/mL | 6 µg/mL (≈ 18.9 µM) | > 200 µg/mL | 81.9% | 15 nM | > 200 µg/mL | > 200 µg/mL | > 200 µg/mL | > 200 µg/mL | 25 µg/mL (≈ 78.9 µM) | 97.4% | > 200 µg/mL | > 200 µg/mL
CCCCCCNC(=O)NC1C2CC3CC(C2)CC1C3 (stereo unspecified) | > 200 µg/mL | 175 µg/mL (≈ 628 µM) | 0.01 µg/mL (≈ 0.0359 µM) | > 200 µg/mL | 32% | 1 nM | > 200 µg/mL | > 200 µg/mL | > 200 µg/mL | > 200 µg/mL | 6.25 µg/mL (≈ 22.4 µM) | 100% | > 200 µg/mL | > 200 µg/mL
CCCCCCCNC(=O)Nc1ccc(C)c(Cl)c1 | > 200 µg/mL | 186 µg/mL (≈ 659 µM) | 3.1 µg/mL (≈ 11 µM) | > 200 µg/mL | 91% | 1.6 nM | > 200 µg/mL | > 200 µg/mL | > 200 µg/mL | > 200 µg/mL | > 200 µg/mL | 99.3% | > 200 µg/mL | > 200 µg/mL
CCCCCNC(=O)NC1C2CC3CC(C2)CC1C3 (stereo unspecified) | > 200 µg/mL | 11.6 µg/mL (≈ 43.9 µM) | 0.39 µg/mL (≈ 1.47 µM) | > 200 µg/mL | 58.6% | 6.4 nM | > 200 µg/mL | > 200 µg/mL | > 200 µg/mL | > 200 µg/mL | 12.5 µg/mL (≈ 47.3 µM) | 90.5% | > 200 µg/mL | > 200 µg/mL
